Entries after “also recorded” stand apart in the source; their conditions may differ. Read-outs that look alike come from different tables or passages of the source.
Legend:
patient = conditions: human, in vivo
[1] = system: cGMP accumulation in the aortic rings; assay: cGMP accumulation in aortic rings; format: cell-based, New Zealand white rabbits; conditions: for effect on increase in cGMP produced by GTN: 1 μM for 1 minute
[2] = system: anesthetized rabbits (arterial blood pressure); assay: Systemic hypotensive effects of GTN infusion in anesthetized rabbits; format: in vivo, New Zealand white rabbits; conditions: for effect on SNP or adenosine mediated hypotension: inhibitor (~5 mM) infused intravenously 20 minutes prior; for effect on hypotensive effects of GTN: inhibitor (~5 mM) infused intravenously 20 minutes prior to GTN
[3] = system: organic nitrate ester reductase activity (mtALDH) in aorta rings; assay: 1,2-GDN formation from GTN in aorta rings; format: cell-based, New Zealand white rabbits; conditions: for activity at 1000 µM: Oryctolagus cuniculus, read-out: 1,2-GDN generation in the aorta rings, % of control activity
[4] = system: rabbit thoracic aorta rings; assay: tissue or blood; format: cell-based, New Zealand white rabbits; conditions: for EC50: Oryctolagus cuniculus, read-out: EC50 for GTN relaxation
[5] = biological target: T1, mouse mitochondria aldehyde dehydrogenase (mtALDH) purified from RAW264.7 cells (Mus musculus, UniProt P47738); assay: GTN reductase activity of purified enzyme (1,2-GDN formation from [14C]GTN, TLC-LSS); format: biochemical; conditions: for restoration of catalytic activity lost upon removal of DTT by dialysis: purified enzyme after dialysis
T1 construct: Mouse macrophage RAW 264.7 cells were homogenized in a 30 mM phosphate buffer; endogenous in cells; host or cells: mouse macrophage RAW 264.7 cells (endogenous enzyme purified over DEAE-cellulose, Q-sepharose, Butyl-Sepharose and hydroxyapatite)
T1 sequence (P47738 20-519): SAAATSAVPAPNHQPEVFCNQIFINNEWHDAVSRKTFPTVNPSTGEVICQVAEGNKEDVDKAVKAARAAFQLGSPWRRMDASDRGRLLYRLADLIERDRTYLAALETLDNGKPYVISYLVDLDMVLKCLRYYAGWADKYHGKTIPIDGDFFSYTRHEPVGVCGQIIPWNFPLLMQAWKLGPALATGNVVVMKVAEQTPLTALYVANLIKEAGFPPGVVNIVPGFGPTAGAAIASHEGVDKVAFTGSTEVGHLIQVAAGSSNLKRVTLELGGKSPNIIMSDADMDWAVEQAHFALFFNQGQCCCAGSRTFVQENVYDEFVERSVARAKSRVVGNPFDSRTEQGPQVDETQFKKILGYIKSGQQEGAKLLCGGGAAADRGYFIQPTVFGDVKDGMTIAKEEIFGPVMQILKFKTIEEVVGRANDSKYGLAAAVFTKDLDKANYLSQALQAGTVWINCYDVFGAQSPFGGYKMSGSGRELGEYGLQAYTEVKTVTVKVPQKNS

[6] = biological target: T2, mtALDH isolated from mouse macrophage RAW 264.7 (Mus musculus, UniProt P47738); format: biochemical
T2 construct: Mouse macrophage RAW 264.7 cells were homogenized in a 30 mM phosphate buffer; endogenous in cells; host or cells: mouse macrophage RAW 264.7 cells (endogenous enzyme purified over DEAE-cellulose, Q-sepharose, Butyl-Sepharose and hydroxyapatite)
T2 sequence (P47738 20-519): T1 sequence (P47738 20-519)

[7] = cited from earlier work
mtALDH = biological target: T3, mtALDH (Oryctolagus cuniculus, UniProt G1SUY2); assay: mtALDH activity in partially purified preparations of GTN tolerant aortic rings; format: biochemical, rabbit
T3 construct: from tissue; host or cells: thoracic aorta rings of New Zealand white rabbits, made GTN tolerant; partially purified preparation
T3 sequence (G1SUY2 1-521): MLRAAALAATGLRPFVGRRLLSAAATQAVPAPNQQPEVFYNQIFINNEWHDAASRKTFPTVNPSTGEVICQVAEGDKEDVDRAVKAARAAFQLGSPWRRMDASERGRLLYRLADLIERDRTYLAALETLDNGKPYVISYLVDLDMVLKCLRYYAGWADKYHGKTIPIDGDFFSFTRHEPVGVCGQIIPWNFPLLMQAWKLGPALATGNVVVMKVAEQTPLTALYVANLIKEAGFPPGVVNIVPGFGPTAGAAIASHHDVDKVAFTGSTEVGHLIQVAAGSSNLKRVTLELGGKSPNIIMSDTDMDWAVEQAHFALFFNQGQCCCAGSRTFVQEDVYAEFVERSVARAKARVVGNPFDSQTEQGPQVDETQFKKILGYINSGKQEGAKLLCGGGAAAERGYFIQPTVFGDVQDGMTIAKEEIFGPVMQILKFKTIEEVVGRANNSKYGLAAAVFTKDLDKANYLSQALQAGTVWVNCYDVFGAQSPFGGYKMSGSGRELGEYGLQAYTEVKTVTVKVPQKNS

[8] = system: mitochondria isolated from RAW 264.7 cells; assay: 1,2-GDN generation from GTN by mitochondria isolated from RAW 264.7 cells; format: biochemical, mouse
Description: During protein purification, the assay mixtures (1 ml samples) contained 100 mM KPi, pH7.5, 0.5 mM EDTA, 1 mM NADH, 1 mM NADPH, 0.1 or 1 μM [^14C]GTN and protein sample from column fractions. After incubation at 37° C. for 10 to 30 minutes, the reaction was stopped (by adding dry ice) and GTN and its metabolites were extracted by 3×4 ml ether, the ether phase was combined and the solvent was evaporated by a stream of nitrogen. The final volume was controlled to less than 100 μl in ethanol for subsequent thin layer chromatography (TLC) separation and liquid scintillation spectrometry counting, i.e., (TLC-LSS), to determine amount of [^14C]1,2-GDN, to select samples with enzymatic activity (i.e., 1,2-GDN producing activity).
At the end of the procedure, the protein had been purified to near homogeneity (90 fold), with a 14.4% overall yield; its estimated molecular weight on SDS gel is about 53 kDa. N-terminal sequence of 30 amino acid residues was obtained by Edman degradation and matched exactly with mouse mitochondria aldehyde dehydrogenase.

[9] = 1 mM, 20 minutes before 1 μM GTN, 5 minutes 37° C.

## O=[N+]([O-])O[C@@H]1CO[C@H]2[C@@H]1OC[C@@H]2O [Imdur]
patient
  cross-tolerance with nitroglycerin: no cross-tolerance

## N#CN [cyanamide]
[1]; 100 μM-10 nM
  reduction of the cGMP increase produced by GTN: 46%
[2]
  effect on SNP or adenosine mediated hypotension: little or no effect
  effect on hypotensive effects of GTN: significantly attenuated
[3]; [9]
  activity at 1000 µM: 56.9%
[4]
  increase of GTN EC50 by inhibitor/competitive substrate: 4.9 fold

## CCN(CC)C(=S)SSC(=S)N(CC)CC [antibuse]
patient; po
  clinical outcome: without headache or symptomatic hypotension

## O=CC[N+](=O)[O-] [nitroacetaldehyde]
patient; 0.1 mg/kg
  clinical outcome: relief of dyspnea

## N[C@@H](CCC(=O)N[C@@H](CS)C(=O)NCC(=O)O)C(=O)O [glutathione]
[5]
  restoration of catalytic activity lost upon removal of DTT by dialysis: not

## Cc1cnc(C(=O)NCCc2ccc(S(=O)(=O)NC(=O)NC3CCCCC3)cc2)cn1 [glipizide]
patient; iv
  clinical outcome: preservation of left ventricular function

## CCON=O [ethyl nitrite]
patient; iv
  clinical outcome: Anginal symptoms resolve
  systolic blood pressure after fall: 120 mm Hg

## OC(O)C(Cl)(Cl)Cl [chloral hydrate]
patient
  clinical outcome: resolution of symptoms; also recorded: without a decline in blood pressure; also recorded: without a fall in blood pressure; also recorded: improvement in wheezing and shortness of breath
patient; iv
  clinical outcome: left ventricular function is largely preserved
patient; po
  clinical outcome: blood pressure is restored
  systolic blood pressure after rise: 160 mm Hg
[1]
  effect on increase in cGMP produced by GTN: completely blocked
[2]
  effect on SNP or adenosine mediated hypotension: little or no effect
  effect on hypotensive effects of GTN: significantly attenuated
[3]; [9]
  activity at 1000 µM: 27.6%
[4]
  increase of GTN EC50 by inhibitor/competitive substrate: 8.9 fold

## O[C@H](CS)[C@H](O)CS (racemic) [DTT, dithiothreitol]
[5]; purified enzyme
  dependence of 1,2-GDN formation by purified enzyme on added dithiol: could only catalyze 1,2-GDN formation when dithiol
[5]
  restoration of catalytic activity lost upon removal of DTT by dialysis: fully restored
[6]
  activation of mtALDH to cause conversion of GTN to 1,2-GDN (FIG. 1): best activators

## N[C@@H](CCC(=O)N[C@@H](CSN=O)C(=O)NCC(=O)O)C(=O)O [S-nitrosoglutathione]
patient
  clinical outcome: improvement of dyspnea and relief of angina; also recorded: relief of symptoms

## O=C(O)CCP(CCC(=O)O)CCC(=O)O [TCEP, tris(2-carboxyethylphosphine)]
patient
  clinical outcome: tolerance is reversed and angina resolves
[6]; 1 mM GTN, excess mtALDH, 37° C. 10-30 minutes, DTT 1 mM, DHLA 0.5 and 0.1 mM, TCEP 1 mM
  activation of mtALDH to cause conversion of GTN to 1,2-GDN (FIG. 1): best activators

## O=NOC(CO)CO [2 glycerol mononitrite, 2-glycerol mononitrite]
patient
  angiography the following year: no progression of atherosclerosis
  clinical outcome: relief of symptoms

## O=C(O)CCCC[C@@H](S)CCS (racemic) [DHLA, dihydrolipoic acid]
patient; iv, 50 mg/kg
  clinical outcome: reverses tolerance and maintains mtALDH activity
[6]
  activation of mtALDH to cause conversion of GTN to 1,2-GDN (FIG. 1): best activators

## acetaldehyde
patient; iv
  clinical outcome: normalizing blood pressure
[1]
  effect on increase in cGMP produced by GTN: completely blocked
[3]; [9]
  1,2-GDN generation in the aorta rings, % of control activity: 52.5%
[4]
  increase of GTN EC50 by inhibitor/competitive substrate: 4.4 fold

## NCCCNCCSP(=O)(O)O [amifostine]
patient
  clinical outcome: resolution rectal pain
  improvement in FEV 1: 12%

## nitric oxide [NO solutions]
[4]
  effect of preincubation with the mtALDH inhibitors on relaxation induced by this vasodilator: did not attenuate relaxation

## CCCCCO[N+](=O)[O-] [amyl nitrate]
patient
  clinical outcome: improvement in dyspnea and symptoms of fatigue

## O=C(O)CCCC[C@@H]1CCSS1 (racemic) [lipoic acid]
[5]; purified enzyme
  dependence of 1,2-GDN formation by purified enzyme on added dithiol: could only catalyze 1,2-GDN formation when dithiol

## [Cl-].[O-][N+](=S)CCCC[P+](c1ccccc1)(c1ccccc1)c1ccccc1 [thionitrobutyltriphenylphosphonium chloride]
patient; iv, 15 mg/kg
  clinical outcome: relief of symptoms and enhanced sensitivity to nitroglycerin

## O=[N+]([O-])OCC(CO[N+](=O)[O-])O[N+](=O)[O-] [GTN, glyceryl trinitrate]
patient
  blood pressure after drop: 100 mm Hg
[5]; purified enzyme
  1,3-GDN formation from GTN: below detection limits
[5]; purified enzyme, GTN 0.1 to 10 μM
  rates of 1,2-GDN formation versus GTN concentration: linear
[5]; purified enzyme, n=3
  product ratio of 1,2-GDN/NOx (nitrite plus nitrate): 0.73±0.05
  product ratio of 1,2-GDN/nitrite: 0.83±0.14
[7]
  solubility in glycerol: sparingly soluble
mtALDH
  activity of mtALDH: inhibited
[1]; GTN tolerant rings
  cGMP accumulation from GTN treatment: abolished
[3]; GTN-tolerant rings compared to control
  decrease of reductase activity as measured by 1,2-GDN formation: 60.4%
[8]; mitochondria isolated from RAW 264.7 cells, 1 mM NADH/NADPH
  1,2-GDN generation from GTN: 0.29 nmol/h/mg
[8]; mitochondria-free supernatant
  1,2-GDN generation from GTN, residual activity: no residual activity
[4]; 0.5 h
  EC50: 3.76 ± 2.05 µM
[4]
  EC50: 0.0226 ± 0.0092 µM

— patent US7691907B2, “Methods and composition based on discovery of metabolism of nitroglycerin” (priority 2002, dated 2010)
